Results reported in patent US20140239525A1, “INHALABLE PHARMACEUTICAL COMPOSITIONS” (BOARD OF REGENTS, UNIVERSITY OF TEXAS SYSTEM, priority 2011, published 2014).
Read-outs that look alike come from different tables or passages of the source.

Tests used:
[1] = solubilized oral formulations, cited from earlier work
IL-12 = test: Inflammatory response: IL-12 in bronchoalveolar lavage supernatant by ELISA; assay type: in vivo, mice
Experimental: The inflammatory response to the administration of hydrophobic bioactive agents (e.g., as discussed in connection with Example 1-3 above) was measured. Surgery is performed on sacrificed mice to expose the pleural cavity and trachea at the throat. […] An aliquot (about 0.75 mL) of phosphate buffered saline is instilled through the cannula into the lungs and removed to wash the bronchial and alveolar surfaces. This process is repeated for a total of three washes. The phosphate buffered saline containing cells is placed into centrifuge vials and centrifuged at about 3000 rpm (MiniSpin Plus, Eppendorf International, Hamburg, Del.). The supernatant is removed leaving the collected cells in the pellet. The supernatant from the BAL (Bronchoalveolar Lavage) is analyzed by enzyme-linked immunosorbent assay (ELISA) for IL-12 elevation (n=2 per sample tested).

mice = test: Survival and health of mice after aerosol dosing; assay type: in vivo; conditions: 48 hours after the end of the nebulization event
Experimental: Pulmonary Delivery to Mice: Animals were caged in groups of 4 and maintained on a normal rodent chow diet with free access to water. Prior to dosing, CD-1@ IGS ICR mice (Charles River Laboratories International, Inc., Wilmington, Mass., USA) were individually acclimatized for approximately 10 minutes per day for 3 days into restraint tubes, restricted by an anterior nose insert and a posterior holder. The dosing apparatus was placed inside a fume hood to collect escaping aerosol containing drug. To avoid influence from the airflow provided by the fume hood, an erlenmeyer container was placed at the end of the tubing system as a buffer. The airflow rate was set to 1 L/min to ensure proper drug aerosolization into the nose-only chamber (internal volume: 230 mL; diameter: 3.8 cm; length: 20.3 cm) using an Aeroneb Pro® vibrating-mesh nebulizer (Aerogen, Galway, Ireland). Following preparation, all formulations (saline control, DMPC, DPPC, and DSPC) were dosed for 15 minutes to mice weighing from 23 to 33 g each, at time of dosing. Each single-dose studied group consisted of thirty-six male animals. At each time point (0.5, 1, 3, 8, 24, and 48 hours after the end of the aerosolization event) six animals randomly selected from different dosing events of the same formulation were sacrificed by narcosis with carbon dioxide. […]

[2] = Particle size distribution by laser diffraction (LD); assay type: physicochemical
Experimental: Laser Diffraction (LD): Bulk CoQ10 powder was dispersed in 20% (v/v) 1,3-propanediol in deionized water for analysis of particle size distribution. This dispersed sample was then added to a small cell apparatus in a Malvern Mastersizer S® instrument (Malvern Instruments, Worcestershire, UK) equipped with a 300 mm lens until 5-10% obscuration was attained. The internal phase and dispersant refractive indexes were 1.45 and 1.33, respectively.
(§1) Particle Size Distribution: Particle size distribution testing of the dispersed formulations was performed with LD using a wet sample dispersion unit stirring at 1,000 rpm coupled to a Malvern Spraytec® (Malvern Instruments, Worcestershire, UK) equipped with a 300 mm lens. The dispersed formulations were added to distilled water (dispersant) until approximately 5% laser obscuration was attained. The internal phase and dispersant refractive indexes were set as 1.45 and 1.33, respectively. A timed measurement was performed for 45 seconds with 1 second sampling periods (a total of 45 measurements). Results are presented as Dv(X) and span, where X is the cumulative percentile of particles under the referred size (e.g. Dv(50) corresponds to the median volume of the particles). Span is a measurement of particle size distribution calculated as [Dv(90)-Dv(10)]/Dv(50)]. A higher span indicates a more polydisperse particle size distribution.
as §1, with “5%” for “5% laser”, “were” for “were set as”, “45 data acquisition periods).” for “45 measurements).”, “is the” for “is a”, “as [Dv(90)−Dv(10)]/Dv(50)].” for “as [Dv(90)-Dv(10)]/Dv(50)].”

[3] = CoQ10 in lung tissue of mice after 15 min nose-only aerosol dosing; assay type: in vivo
Experimental: Pulmonary Delivery to Mice: Animals were caged in groups of 4 and maintained on a normal rodent chow diet with free access to water. Prior to dosing, CD-1@ IGS ICR mice (Charles River Laboratories International, Inc., Wilmington, Mass., USA) were individually acclimatized for approximately 10 minutes per day for 3 days into restraint tubes, restricted by an anterior nose insert and a posterior holder. The dosing apparatus was placed inside a fume hood to collect escaping aerosol containing drug. To avoid influence from the airflow provided by the fume hood, an erlenmeyer container was placed at the end of the tubing system as a buffer. The airflow rate was set to 1 L/min to ensure proper drug aerosolization into the nose-only chamber (internal volume: 230 mL; diameter: 3.8 cm; length: 20.3 cm) using an Aeroneb Pro® vibrating-mesh nebulizer (Aerogen, Galway, Ireland). Following preparation, all formulations (saline control, DMPC, DPPC, and DSPC) were dosed for 15 minutes to mice weighing from 23 to 33 g each, at time of dosing. Each single-dose studied group consisted of thirty-six male animals. At each time point (0.5, 1, 3, 8, 24, and 48 hours after the end of the aerosolization event) six animals randomly selected from different dosing events of the same formulation were sacrificed by narcosis with carbon dioxide. As part of the collection process, blood was withdrawn by cardiac puncture, lungs were harvested, and a nasal wash was performed. The samples were extracted for analysis with liquid chromatography coupled with tandem mass spectrometry (LC/MS/MS).
Analysis of CoQ10 Levels in Lung Tissue, Blood Plasma, and Nasal Cavity: For each experiment, CoQ10 levels were determined after liquid extraction using liquid chromatography coupled with tandem mass spectrometry (LC-MS/MS). The methods were validated in the drug concentration range of 0.1 to 600 μg/mL. The general sample preparation protocols for lung tissue, blood plasma, and nasal cavity analysis are described below. […]

[4] = after ball milling for 18 hours
[5] = previous studies, same nebulizer

COC1=C(OC)C(=O)C(C/C=C(\C)CC/C=C(\C)CC/C=C(\C)CC/C=C(\C)CC/C=C(\C)CC/C=C(\C)CC/C=C(\C)CC/C=C(\C)CC/C=C(\C)CCC=C(C)C)=C(C)C1=O [CoQ10, Coenzyme Q10]
highest plasma concentration of CoQ10 reported in the literature ([1]; approximate conversion): approximately 9 μg/mL | highest plasma concentration of CoQ10 reported in the literature [1]: 10.7 µmol/L | IL-12 levels in BAL supernatant (IL-12; ELISA): not associated with a rise in IL-12 levels | lung inflammation (IL-12; mouse, in vivo): does not cause lung inflammation | survival and health signs (mice): all mice were alive and presenting healthy signs | Dv(50) [2, 4]: 29.87 μm | span [2, 4]: 2.282 | particle size ([2]; bulk CoQ10 powder): 30 μm | Dv(50) ([2]; bulk material): 29.87 μm | span ([2]; bulk material): 2.051 | time CoQ10 stays in the lungs at relatively high concentrations ([3]; mice, after 15 min aerosol): up to 48 hours | Cmax relative to dispersions of cyclosporine A [3, 5]: ≤ 75 fold | Cmax relative to dispersions of itraconazole [3, 5]: ≤ 165 fold
